Data: PMC6547740, “Potent and specific MTH1 inhibitors targeting gastric cancer” (Cell Death & Disease, 2019)
Each block holds one compound with its values, some of them ahead of it.

Experiments:
HGC-27 cells [1] = assay: Colony formation assay, HGC-27; type: cell-based, human; conditions: HGC-27, 7 days treatment, compared with DMSO or MI-929
Protocol: (§1) The day before treatment, cells were seeded into six-well plates at a concentration of 1 × 10^3 cells per well, and then the media were replaced with fresh media containing serial concentrations of candidate compounds. After 7 days of treatment, the cells were fixed with 75% ethanol, stained with 0.1% crystal violet solution and captured by the microscopy (Leica). After that, the crystal violet crystals were dissolved by adding methanol. The absorbance at 595 nm was measured by a BioTek micro plate reader. In the end, the data were analyzed using the GraphPad Prism 5 software.

MGC-803 cells [2] = assay: Colony formation assay, MGC-803; type: cell-based, human; conditions: MGC-803, 7 days treatment, compared with DMSO or MI-929
Protocol: as §1

MTH1 [3] = target: T1, MTH1 (Homo sapiens, UniProt P36639); assay: Cellular thermal shift assay (CETSA), MTH1; type: binding; parameters: endogenous in cells; host or cells: MGC-803 (human gastric cancer cell line); conditions: MGC-803 cells, 50 µM compound, heated 10 min from 43 to 61 °C, western blot
Protocol: Cellular thermal shift assay (CETSA), also known as the target engagement assay was one-way to detect the intracellular interaction ability of compounds with its specific target. Firstly, cells were seeded into T75 culture flasks and cultured overnight. Then, the cells were treated with cell media containing 1‰ DMSO as blank control and candidate compounds for 3–5 h. Next, the cells were collected by centrifugation and resuspended by PBS, then the cells were aliquoted into 7 PCR tubes and heated using PCR instrument for 10 min from 43 to 61 °C. After that, cells were lysed using liquid nitrogen and three repeated cycles of freeze-thawing. Then, samples were centrifuged at 12,000 × g for 20 min at 4 °C. Supernatants were denatured at 100 °C for 10 min and kept at −20 °C until Western Blot analysis.

MTH1 [4] = target: T1, MTH1; assay: MTH1 recombinant protein activity / inhibitor screening (malachite green); type: biochemical; parameters: His-tag; made in house; host or cells: E. coli BL21(DE3); conditions: 5 nM recombinant MTH1, dGTP substrate, absorbance 630 nm; read-out: IC50 (MTH1 inhibition)
Protocol: On the basis of the ability of MTH1 in converting dGTP to dGMP and pyrophosphate, and the latter can then be hydrolyzed to […] by inorganic pyrophosphatase, the MTH1 activity was designed to measure the product of […], after its reaction with malachite green and ammonium molybdate(Fig. 2l), the green associated complex was measured at 630 nm by PerkinElmer Envision microplate reader.
Firstly, the assay buffer (100 mM Tris-acetate at pH 8.0, 40 mM NaCl, 10 mM Mg-acetate, 0.005% Tween 20 and 1 mM DTT) was added into a 96-well plate. Then, 5 nM recombinant human MTH1, […] dGTP and 0.2U/ml […] were added in sequence. After 60 min reaction, the mixture of 0.45 mg/mL malachite green and 4.2% ammonium molybdate in proportion of 3:1 were added. Then, the plates were incubated and shaken at room temperature for another 60 min. The absorbance was measured at 630 nm using the PerkinElmer Envision micro plate reader.

MCF-7 cells = assay: MTT cell viability, MCF-7; type: cell-based; conditions: Homo sapiens, MCF7, breast cancer cell line, 72 h
Protocol: (§2) The cell viability was determined by 3-(4,5-dimethylthiazol-2-yl)-2,5-diphenyltetrazolium bromide (MTT) assay, according to the manufacturer’s instructions. 1 day before treatment, cells were seeded into 96-well plates at a concentration of 2–5 × 10^3 cells per well, followed by treatment with fresh medium containing serial dilutions of candidate compounds for 48 or 72 h, 20 μL of MTT solution (5 mg/mL in PBS) was then added to each well. After treatment, the plates were incubated at 37 °C for another 4 h. Subsequently, the MTT solution was removed and 150 μL of DMSO was added to each well for 10 min, and then the plates were shaken to dissolve the dark blue crystal (formazan), the absorbance was detected at 570 nm using a BioTek microplate reader. The data were analyzed using SPSS 20 software.

EC9706 cells = assay: MTT cell viability, EC9706; type: cell-based; conditions: Homo sapiens, esophageal cancer cell line, 72 h
Protocol: as §2

Het-1A cells = assay: MTT cell viability, Het-1A; type: cell-based; conditions: Homo sapiens, normal esophageal epithelial cell line, 72 h
Protocol: as §2

GES-1 cells = assay: MTT cell viability, GES-1; type: cell-based; conditions: Homo sapiens, GES1, normal gastric epithelial cell line, 72 h
Protocol: as §2

MKN45 cells = assay: MTT cell viability, MKN45; type: cell-based; conditions: Homo sapiens, MKN-45, gastric cancer cell line, 72 h
Protocol: as §2

pc9 cells = assay: MTT cell viability, pc9; type: cell-based; conditions: Homo sapiens, PC-9, 72 h
Protocol: as §2

HGC-27 cells [5] = assay: MTT cell viability, HGC-27; type: cell-based; conditions: Homo sapiens, gastric cancer cell line, 72 h
Protocol: as §2

EC109 cells = assay: MTT cell viability, EC109; type: cell-based; conditions: Homo sapiens, ECa-109, esophageal cancer cell line, 72 h
Protocol: as §2

HepG2 cells = assay: MTT cell viability, HepG2; type: cell-based; conditions: Homo sapiens, liver cancer cell line, 72 h
Protocol: as §2

TE-1 cells = assay: MTT cell viability, TE-1; type: cell-based; conditions: Homo sapiens, 72 h
Protocol: as §2

MGC-803 cells [6] = assay: MTT cell viability, MGC-803; type: cell-based; conditions: Homo sapiens, gastric cancer cell line, 72 h
Protocol: as §2

ZIP177 cells = assay: MTT cell viability, ZIP177; type: cell-based; conditions: Homo sapiens, liver cancer cell line, 72 h
Protocol: as §2

H1975 cells = assay: MTT cell viability, H1975; type: cell-based; conditions: Homo sapiens, NCI-H1975, 72 h
Protocol: as §2

B16-F10 cells = assay: MTT cell viability, B16-F10; type: cell-based; conditions: Mus musculus, 72 h
Protocol: as §2

L02 cells = assay: MTT cell viability, L02; type: cell-based; conditions: Homo sapiens, normal liver cell line, 72 h
Protocol: as §2

KYSE-450 cells = assay: MTT cell viability, KYSE-450; type: cell-based; conditions: Homo sapiens, esophageal cancer cell line, 72 h
Protocol: as §2

HL-7702 cells = assay: MTT cell viability, HL-7702; type: cell-based; conditions: Homo sapiens, L02, normal liver cell line, 72 h
Protocol: as §2

SGC-7901 cells = assay: MTT cell viability, SGC-7901; type: cell-based; conditions: Homo sapiens, gastric cancer cell line, 72 h
Protocol: as §2

SMMC-7721 cells = assay: MTT cell viability, SMMC-7721; type: cell-based; conditions: Homo sapiens, liver cancer cell line, 72 h
Protocol: as §2

SMILES: C[C@H](Oc1cc(-c2cnn(C3CCNCC3)c2)cnc1N)c1c(Cl)ccc(F)c1Cl [(S)-crizotinib]
- colony formation (HGC-27 cells [1]): smaller and fewer colonies
- colony formation (MGC-803 cells [2]): smaller and fewer colonies

- melting point: 155 to 156 °C
- temperature of MTH1 degradation (MTH1 [3]): 49 °C
- IC50 (MTH1 [4]): 0.4613 ± 0.00267 µM
SMILES: Cc1ccc(Nc2nc(SCc3cn(CC(=O)NC(=O)Nc4ccccn4)nn3)nc(-c3ccc(Br)cc3)c2C#N)cc1 [MI-401, 2-(4-((4-(4-bromophenyl)-5-cyano-6-(p-tolylamino)pyrimidin-2-yl)thiomethyl)-1H-1,2,3-triazol-1-yl)-N-(pyridin-2-ylcarbamoyl)acetamide]

- IC50 (MCF-7 cells): > 50 µM
- temperature of MTH1 degradation (MTH1 [3]): 49 °C
- IC50 (MKN45 cells): > 50 µM
- IC50 (pc9 cells): > 50 µM
- IC50 (HepG2 cells): > 50 µM
- IC50 (MGC-803 cells [6]): > 50 µM
- IC50 (H1975 cells): > 50 µM
- IC50 (B16-F10 cells): > 50 µM
- IC50 (MTH1 [4]): > 50 µM
- IC50 (SGC-7901 cells): > 50 µM
- IC50 (SMMC-7721 cells): > 50 µM
SMILES: COc1ccccc1NC(=O)NC(=O)CSC(=S)N1CCCC1 [MI-929]
- IC50 (EC9706 cells): > 50 µM
- IC50 (Het-1A cells): > 50 µM
- IC50 (GES-1 cells): > 50 µM
- IC50 (HGC-27 cells [5]): > 50 µM
- IC50 (EC109 cells): > 50 µM
- IC50 (TE-1 cells): > 50 µM
- IC50 (ZIP177 cells): > 50 µM
- IC50 (L02 cells): > 50 µM
- IC50 (KYSE-450 cells): > 50 µM
- IC50 (HL-7702 cells): > 50 µM

SMILES: Nc1nc(NC2CC2)cc(-c2cccc(Cl)c2Cl)n1 [TH588]
- colony formation (HGC-27 cells [1]): smaller and fewer colonies
- colony formation (MGC-803 cells [2]): smaller and fewer colonies
